Experimental data from publication PMC10791743, “Selective CK1α degraders exert antiproliferative activity against a broad range of human cancer cell lines” (Nature Communications, 2024).
Converted amounts (≈) assume the structure as drawn. “And” between values parts separate entries of the source, which are not always exact repeats. Identical values can stand only once.

Assays:
[1] = Aqueous solubility assay; assay type: physicochemical; settings: DPBS buffer
Protocol: page 30: ADME Methods Aqueous solubility assay: Solubility assays were conducted using a Biomek FX lab automation workstation (Beckman Coulter, Inc., Fullerton, CA) and μSOL Evolution software (pION Inc., Woburn, MA). In a 96-well microplate (Cat. No: 3363, Corning Incorporated, Salt Lake, UT), 10 μL of a 10 mM test compound stock in DMSO was added to 190 μL 1-propanol (Thermo Scientific, spectroscopy, Cat. No: 434360010, Fair Lawn, NJ) to create a reference stock plate. From this reference stock plate, 5 μL solutions were mixed with 70 μL 1-propanol and 75 μL Dulbecco's Phosphate Buffered Saline (DPBS, 1X, GibcoTM, Cat. No: 14190-144, Thermo Fisher Scientifics, Waltham, MA) to generate the reference plate (high sensitivity UV plate, Cat. No: 110286, pION Inc., Woburn, MA). In a 96-well storage plate (Cat. No: 201276-100, Agilent, Santa Clara, CA), 6 μL of a 10 mM test compound stock was added to 600 μL buffer, mixed, sealed, and incubated at room temperature for 18 hours. […] UV spectra of the reference and sample plates were then read, and calculations based on the area under the curve (AUC) of the UV spectra were performed using μSOL Evolution software. […] The medium in the wells was changed every other day, and the trans epithelial electrical resistance (TEER) value was measured

[2] = Plasma stability assay, human; assay type: in vitro ADME; settings: for Calculated Concentration: 0h standards set to Actual Concentration 100, IS warfarin, replicates
Protocol: page 32: Aldrich, Saint Louis, MO) were diluted into 0.1 M potassium phosphate buffer (PBS, pH 7.4, KH2PO4, Cat. No: P284-500; K2HPO4, Cat. No: BP363-500, Fisher Scientific, Fair Lawn, NJ) and mixed well. 40 μL of this solution was transferred into the above compounds plates. For the time 0 plate, 3 fold (v:v) cold acetonitrile with warfarin (400 ng/mL) as the internal standard was added to […] and B in PBS, pH 7.4) and no incubation. For the other five time points’ plates, 10 μL NADPH regenerating agent mixer was added to each well to initiate the reaction, the plate was sealed and incubated at 37° C on an orbital shaker (100 rpm) for the required time, followed by quenching of the reaction by adding 3-fold volume of cold acetonitrile with internal standard to each well. The final concentration of each component applied in this reaction was liver microsome protein at 0.5 […] After quenching, all plates were securely sealed and thoroughly mixed at 600 rpm for 10 minutes. Subsequently, centrifugation was performed at 4000 rpm for 20 minutes. The resulting supernatants […] analysis using UPLC–MS/MS. The assessment of metabolic stability involved determining the half- life through a least-squares fit of multiple time points, employing first-order kinetics. Plasma stability assay5: The degradation of human or mouse plasma was assessed by monitoring the gradual reduction of the parent compound over specified time intervals (0, 3, 24, and 48 hours). Human and mouse plasma samples were sourced from GeneTex (Irvine, CA). Test compound stock solutions, prepared at 10 mM in DMSO, were dispensed into triplicate wells of a 96-well microplate using the Labcyte Echo 650 dispenser. For plates, excluding the time 0-hour plate, plasma was […] The plate was sealed, incubated at 37°C on an orbital shaker (100 rpm) for the required duration, and then quenched with cold acetonitrile, incorporating warfarin as the internal standard. In the case of the time 0-hour plate, cold acetonitrile with the internal standard was added to each well before introducing plasma, eliminating page 33: the need for further incubation. Following quenching, all plates were thoroughly mixed at 600 rpm for 10 minutes and centrifuged at 4000 rpm for 20 minutes. Supernatants were transferred to […] MS/MS analysis. Plasma stability was evaluated by determining the half-life through a least-squares fit of multiple time points based on first-order kinetics. Plasma protein binding assay: Test compound stock solutions were prepared at a concentration of 10 mM in DMSO. A Single-Use RED (Rapid Equilibrium Dialysis) device was acquired from Thermo Scientific (Cat. No: 99006, Rockford, IL). The sample preparation for plasma protein binding followed a modified version of Waters' method6. After thawing, plasma was centrifuged at 1000 rpm for 10 minutes to eliminate any particulates. Each compound was then prepared at a concentration of 10 µM in either human or mouse plasma. In the plasma protein binding assessment, 300 µL of spiked plasma solutions were introduced into the sample chamber (indicated by the red ring), while 550 µL of DPBS was added to the adjacent chamber. The plate was sealed and incubated at 37°C on an orbital shaker (100 rpm) for 4 hours. Post -incubation, 50 µL aliquots were withdrawn from each side of the insert and dispensed into a 96 -well storage plate. To create analytically identical sample matrices (matrix matching), an equivalent volume of blank plasma or DPBS was added to the necessary wells, followed by quenching w ith 3-fold (v:v) cold acetonitrile containing warfarin as the internal standard. Subsequently, the sealed plates were well -mixed at 600 rpm for 10 minutes and then centrifuged at 4000 rpm for 20 minutes. Supernatants were transferred to analytical […] Test compound concentrations were quantified in both the buffer and plasma chambers by determining peak areas relative to the internal standard. […]

[3] = human plasma, regression of log concentration over time points 0, 3, 24, 48 h

O=C1CCC(N2Cc3cc(Nc4noc5ccccc45)ccc3C2=O)C(=O)N1 (stereo not shown) [SJ3149]
solubility at 18 h [1]: 36 µM (≈ 13.5 µg/mL) | Plasma stability ([2]; human): 8.5 h

O=C1CCC(N2Cc3cc(Nc4noc5ccccc45)ccc3C2=O)C(=O)N1 (stereo not shown) [SJ001043149-1]
Calculated Concentration ([2]; human plasma, time point 3h): 67.501 and 81.153 and 72.775 | Calculated Concentration ([2]; human plasma, time point 24h): 13.370 and 15.407 and 13.318 | Calculated Concentration ([2]; human plasma, time point 48h): 1.845 and 2.121 and 1.968 | Ke [2, 3]: 0.08114 | t(1/2) [2, 3]: 8.5413
